The target of this assay is HSA (Homo sapiens, UniProt P02768). As to the kind of experiment: Dansylsarcosine (DS) binding to prepared HSA, fluorescence titration. The note with it: range over samples.
HSA, sequence (P02768 25-609): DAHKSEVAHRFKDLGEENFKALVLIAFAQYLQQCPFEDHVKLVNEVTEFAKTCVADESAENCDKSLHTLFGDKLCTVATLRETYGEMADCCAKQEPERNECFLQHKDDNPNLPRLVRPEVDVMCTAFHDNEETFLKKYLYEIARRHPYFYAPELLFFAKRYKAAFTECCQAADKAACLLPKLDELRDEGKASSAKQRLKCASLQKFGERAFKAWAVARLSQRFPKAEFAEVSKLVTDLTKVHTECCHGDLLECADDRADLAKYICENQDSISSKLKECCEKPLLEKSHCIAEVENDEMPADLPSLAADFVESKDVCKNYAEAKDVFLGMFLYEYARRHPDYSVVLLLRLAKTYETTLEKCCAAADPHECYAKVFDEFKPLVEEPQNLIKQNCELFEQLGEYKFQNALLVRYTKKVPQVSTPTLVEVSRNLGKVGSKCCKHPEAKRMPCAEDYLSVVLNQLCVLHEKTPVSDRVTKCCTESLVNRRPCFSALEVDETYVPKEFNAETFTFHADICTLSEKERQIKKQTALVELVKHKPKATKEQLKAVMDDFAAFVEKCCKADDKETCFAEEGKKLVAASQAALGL

Description: Prepared HSA was diluted with phosphate-buffered saline (PBS) to a final concentration of 10 µmol/L, and 100 µL of this dilution was applied to a flat-bottomed, half area, polystyrene, black 96-well plate (Greiner Bio-One, Kremsmuenster, Austria). […] The resulting fluorescence was measured using FLUOstar OPTIMA microplate reader (BMG LABTECH, Ortenberg, Germany). Fluorescence excitation and emission detection were performed at 355 nm and 460 nm, respectively. Binding curves were fitted applying non-linear regression using GraphPad Prism Software (Version 5; GraphPad Software, San Diego, CA, USA) after subtraction of non-specific binding. Dissociation constants (Kd) were calculated at DS concentrations, where half-maximal fluorescence was reached.

Consider `CN(C)c1cccc2c(S(=O)(=O)N(C)CC(=O)O)cccc12` [dansylsarcosine], for which the Kd (binding of dansylsarcosine to HSA of healthy donors) fell in the range of 12 to 18 µM and the Kd (binding of dansylsarcosine to patients' HSA (chronic liver failure)) lay within 13 to 28 µM.

A word on the Kd: it is the constant that tells how readily two partners part at equilibrium. A higher Kd goes with weaker binding.

For the origin of these results see PMC8203801 (Communications Biology, 2021).
